Source: ChEMBL document CHEMBL1201862, “PubChem BioAssay data set” (2004)
Where a name gives a salt, the structure may show the parent alone.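 How tested: cells in 96-well plates exposed to compound for 48 hours at five concentrations. Here, GI50 denotes the concentration required for 50% inhibition of growth.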 Calls of active or inactive are those of the source. No stated cut-off is given here; in the data, active = GI50 up to about 1.1 µM and inactive = higher.

How the values were obtained:
Assay in all cases: NCI tumour cell line growth inhibition, 48 h
A498 = system: A498
ACHN = system: ACHN
CAKI-1 = system: CAKI-1
CCRF-CEM = system: CCRF-CEM
COLO 205 = system: COLO 205
DLD-1 = system: DLD-1
DMS-114 = system: DMS-114
DMS-273 = system: DMS-273
EKVX = system: EKVX
HCT-116 = system: HCT-116
HCT-15 = system: HCT-15
HOP-18 = system: HOP-18
HOP-62 = system: HOP-62
HOP-92 = system: HOP-92
KM-20L2 = system: KM-20L2
LXFL 529 = system: LXFL 529
M19-MEL = system: M19-MEL
Malme-3M = system: Malme-3M
NCI-H23 = system: NCI-H23
NCI-H460 = system: NCI-H460
NCI-H522 = system: NCI-H522
OVCAR-3 = system: OVCAR-3
OVCAR-5 = system: OVCAR-5
RXF 393 = system: RXF 393
SF-268 = system: SF-268
SK-MEL-28 = system: SK-MEL-28
SK-MEL-2 = system: SK-MEL-2
SK-OV-3 = system: SK-OV-3
SNB-19 = system: SNB-19
SNB-75 = system: SNB-75
SNB-78 = system: SNB-78
SR = system: SR
T47D = system: T47D
U-251 = system: U-251
UO-31 = system: UO-31
XF498 = system: XF498
786-0 = system: 786-0
A549 = system: A549
HCC 2998 = system: HCC 2998
HL-60 = system: HL-60
HT-29 = system: HT-29
IGROV-1 = system: IGROV-1
K562 = system: K562
KM12 = system: KM12
LOX IMVI = system: LOX IMVI
M14 = system: M14
MOLT-4 = system: MOLT-4
NCI-H226 = system: NCI-H226
OVCAR-4 = system: OVCAR-4
OVCAR-8 = system: OVCAR-8
RPMI-8226 = system: RPMI-8226
SF-295 = system: SF-295
SF-539 = system: SF-539
SK-MEL-5 = system: SK-MEL-5
SN12C = system: SN12C
SW-620 = system: SW-620
TK-10 = system: TK-10
UACC-257 = system: UACC-257
UACC-62 = system: UACC-62
RXF 631 = system: RXF 631

With `CC[C@]1(O)C[C@H]2CN(CCc3c([nH]c4ccccc34)[C@@](C(=O)OC)(c3cc4c(cc3OC)N(C=O)[C@H]3[C@@](O)(C(=O)OC)[C@H](OC(C)=O)[C@]5(CC)C=CCN6CC[C@]43[C@@H]65)C2)C1` [VINCRISTINE SULFATE] the GI50 (A498) was 0.126 µM (active), the GI50 (ACHN) was 0.176 µM (active) and the GI50 (CAKI-1) was 0.14 µM (active). For the same molecule, the GI50 (CCRF-CEM) was 0.131 µM (active), the GI50 (COLO 205) was 0.133 µM (active) and the GI50 (DLD-1) was 0.106 µM (active). The GI50 (DMS-114) was 0.121 µM (active), the GI50 (DMS-273) was 0.1 µM (active) and the GI50 (EKVX) was 2.36 µM (inactive). For the same molecule, the GI50 (HCT-116) was 0.132 µM (active), the GI50 (HCT-15) was 0.137 µM and the GI50 (HOP-18) was 20.8 µM (inactive). For the same molecule, the GI50 (HOP-62) was 0.225 µM (active), the GI50 (HOP-92) was 0.137 µM (active) and the GI50 (KM-20L2) was 0.106 µM (active). The GI50 (LXFL 529) was 0.1 µM (active), the GI50 (M19-MEL) was 0.142 µM (active) and the GI50 (Malme-3M) was 0.333 µM (active). For the same molecule, the GI50 (NCI-H23) was 0.112 µM (active), the GI50 (NCI-H460) was 0.105 µM (active) and the GI50 (NCI-H522) was 0.119 µM (active). For the same molecule, the GI50 (OVCAR-3) was 0.125 µM (active), the GI50 (OVCAR-5) was 22.2 µM (inactive) and the GI50 (RXF 393) was 0.161 µM (active). The GI50 (SF-268) was 0.172 µM (active), the GI50 (SK-MEL-28) was 1.31 µM (inactive) and the GI50 (SK-MEL-2) was 0.132 µM (active). For the same molecule, the GI50 (SK-OV-3) was 0.288 µM (active), the GI50 (SNB-19) was 0.131 µM (active) and the GI50 (SNB-75) was 0.43 µM (active). The GI50 (SNB-78) was 0.163 µM (active), the GI50 (SR) was 0.1 µM (active) and the GI50 (T47D) was 175 µM (inactive). The GI50 (U-251) was 0.132 µM (active), the GI50 (UO-31) was 2.1 µM (inactive) and the GI50 (XF498) was 0.135 µM (active).

In the case of `CC1=C(C(=O)Nc2ccccc2C)C(c2ccc(C3C(C(=O)Nc4ccccc4C)=CNC=C3C(=O)Nc3ccccc3C)cc2)C(C(=O)Nc2ccccc2C)=C(C)N1`, the GI50 (786-0) is reported as 15.1 µM (inactive), the GI50 (A498) is reported as 20.7 µM (inactive) and the GI50 (A549) is reported as 40.6 µM (inactive). The GI50 (ACHN) was 16.4 µM (inactive), the GI50 (CAKI-1) was 21.3 µM (inactive) and the GI50 (CCRF-CEM) was 3.15 µM (inactive). For the same molecule, the GI50 (COLO 205) was 21 µM (inactive), the GI50 (DLD-1) was 13.6 µM (inactive) and the GI50 (DMS-114) was 23.3 µM (inactive). For the same molecule, the GI50 (DMS-273) was 20.7 µM (inactive), the GI50 (EKVX) was 17.9 µM (inactive) and the GI50 (HCC 2998) was 17.8 µM (inactive). The GI50 (HCT-116) was 19.5 µM (inactive), the GI50 (HCT-15) was 16.8 µM and the GI50 (HL-60) was 8 µM (inactive). For the same molecule, the GI50 (HOP-18) was 37 µM (inactive), the GI50 (HOP-62) was 25.4 µM (inactive) and the GI50 (HOP-92) was 22.4 µM (inactive). For the same molecule, the GI50 (HT-29) was 14.4 µM (inactive), the GI50 (IGROV-1) was 18.6 µM (inactive) and the GI50 (K562) was 9.27 µM (inactive). The GI50 (KM-20L2) was 14.7 µM (inactive), the GI50 (KM12) was 14.1 µM (inactive) and the GI50 (LOX IMVI) was 7.08 µM (inactive). For the same molecule, the GI50 (LXFL 529) was 10.9 µM (inactive), the GI50 (M14) was 16.8 µM (inactive) and the GI50 (M19-MEL) was 23.8 µM (inactive). The GI50 (MOLT-4) was 4.5 µM (inactive), the GI50 (Malme-3M) was 19.1 µM (inactive) and the GI50 (NCI-H226) was 17 µM (inactive). For the same molecule, the GI50 (NCI-H23) was 19.1 µM (inactive), the GI50 (NCI-H460) was 21.4 µM (inactive) and the GI50 (NCI-H522) was 6.68 µM (inactive). For the same molecule, the GI50 (OVCAR-3) was 20.3 µM (inactive), the GI50 (OVCAR-4) was 14.7 µM (inactive) and the GI50 (OVCAR-5) was 21.6 µM (inactive). For the same molecule, the GI50 (OVCAR-8) was 25.6 µM (inactive), the GI50 (RPMI-8226) was 15.8 µM (inactive) and the GI50 (RXF 393) was 47.2 µM (inactive). For the same molecule, the GI50 (SF-268) was 11.4 µM (inactive), the GI50 (SF-295) was 19.3 µM (inactive) and the GI50 (SF-539) was 14.4 µM (inactive). For the same molecule, the GI50 (SK-MEL-28) was 17.9 µM (inactive), the GI50 (SK-MEL-2) was 15.7 µM (inactive) and the GI50 (SK-MEL-5) was 12.9 µM (inactive). The GI50 (SK-OV-3) was 27.3 µM (inactive), the GI50 (SN12C) was 14.8 µM (inactive) and the GI50 (SNB-19) was 19.8 µM (inactive). The GI50 (SNB-75) was 19.5 µM (inactive), the GI50 (SNB-78) was 30.2 µM (inactive) and the GI50 (SR) was 3.22 µM (inactive). For the same molecule, the GI50 (SW-620) was 14.6 µM (inactive), the GI50 (TK-10) was 49.7 µM (inactive) and the GI50 (U-251) was 12.2 µM (inactive). For the same molecule, the GI50 (UACC-257) was 17.1 µM (inactive), the GI50 (UACC-62) was 12.7 µM (inactive) and the GI50 (UO-31) was 18.7 µM (inactive). For the same molecule, the GI50 (XF498) was 22.8 µM (inactive).

`CCNC(CCCC(NCC)P(=O)(O)O)P(=O)(O)O` (configuration not stated) was tested, and the GI50 (A498) was > 100 µM (inactive), the GI50 (A549) was > 100 µM (inactive) and the GI50 (CCRF-CEM) was > 100 µM (inactive). For the same molecule, the GI50 (HCT-116) was > 100 µM (inactive), the GI50 (HL-60) was > 100 µM (inactive) and the GI50 (HOP-62) was > 100 µM (inactive). For the same molecule, the GI50 (HOP-92) was > 100 µM (inactive), the GI50 (HT-29) was > 100 µM (inactive) and the GI50 (IGROV-1) was > 100 µM (inactive). The GI50 (KM-20L2) was > 100 µM (inactive), the GI50 (KM12) was > 100 µM (inactive) and the GI50 (M14) was > 100 µM (inactive). For the same molecule, the GI50 (M19-MEL) was > 100 µM (inactive), the GI50 (MOLT-4) was > 100 µM (inactive) and the GI50 (NCI-H226) was > 100 µM (inactive). For the same molecule, the GI50 (NCI-H23) was > 100 µM (inactive), the GI50 (NCI-H460) was > 100 µM (inactive) and the GI50 (NCI-H522) was > 100 µM (inactive). For the same molecule, the GI50 (OVCAR-5) was > 100 µM (inactive), the GI50 (OVCAR-8) was > 100 µM (inactive) and the GI50 (RXF 393) was > 100 µM (inactive). For the same molecule, the GI50 (RXF 631) was > 100 µM (inactive), the GI50 (SF-295) was > 100 µM (inactive) and the GI50 (SK-MEL-28) was > 100 µM (inactive). The GI50 (SK-OV-3) was > 100 µM (inactive), the GI50 (SNB-19) was > 100 µM (inactive) and the GI50 (SNB-78) was > 100 µM (inactive). The GI50 (SR) was > 100 µM (inactive), the GI50 (TK-10) was > 100 µM (inactive) and the GI50 (U-251) was > 100 µM (inactive). The GI50 (UACC-257) was > 100 µM (inactive), the GI50 (UACC-62) was > 100 µM (inactive) and the GI50 (UO-31) was > 100 µM (inactive).
